From PMC3630508 (Molecular immunology, 2012)

Assays:
complement activation = type: in vivo; conditions: 20 mg E23A intra-peritoneal, male Wistar rats, one hour
[1] = aqueous solubility; qualitative, data not shown

Row | SMILES | adverse effects / overt toxicity upon necropsy (complement activation) | solubility [1]
1 | CC[C@H](C)[C@H](NC(=O)[C@H](C)NC(=O)[C@@H]1CCCN1)C(=O)N[C@@H](CS)C(=O)N[C@@H](CCC(N)=O)C(=O)N[C@@H](CCCNC(=N)N)C(=O)N[C@@H](C)C(=O)N[C@H](C(=O)N[C@@H](C)C(=O)N[C@H](C(=O)N[C@@H](CC(C)C)C(=O)NCC(=O)N[C@H](C(=O)N[C@H](C(=O)NCC(=O)N[C@@H](CO)C(=O)N[C@@H](CC(N)=O)C(=O)N[C@H](C(=O)N[C@@H](CO)C(=O)NCC(=O)N[C@H](C(=O)N[C@H](C(=O)N[C@@H](CCC(=O)O)C(=O)N[C@H](C(=O)N[C@@H](C)C(=O)N[C@@H](C)C(=O)N[C@@H](CS)C(=O)N[C@H](C(=O)N[C@@H](CC(C)C)C(=O)N[C@@H](CC(C)C)C(=O)O)[C@@H](C)CC)[C@@H](C)CC)[C@@H](C)O)[C@@H](C)O)[C@@H](C)O)C(C)C)[C@@H](C)O)[C@@H](C)O)[C@@H](C)O [E23A] | no overt adverse effects | relative insolubility
2 | CC[C@H](C)[C@H](N)C(=O)N[C@@H](C)C(=O)N[C@@H](CC(C)C)C(=O)N[C@H](C(=O)N[C@@H](CC(C)C)C(=O)N[C@@H](CCC(=O)O)C(=O)N1CCC[C@H]1C(=O)N[C@H](C(=O)N[C@@H](CS)C(=O)N[C@@H](CS)C(=O)N[C@@H](CCC(N)=O)C(=O)N[C@@H](CCC(=O)O)C(=O)N[C@@H](CCCNC(=N)N)C(=O)N[C@@H](C)C(=O)N[C@@H](C)C(=O)O)[C@@H](C)CC)[C@@H](C)CC [PA] | – | aqueous solubility of the compound was significantly improved
